Measured values reported in US20240116985A1, “STAPLED PEPTIDES AND METHODS THEREOF” (priority 2020, published 2024).
≈ marks a conversion by molar mass, not a printed value. Where “and” joins values, the source holds several entries; their conditions need not be identical. Identical values can stand only once. Like-named read-outs stand apart in the source and are kept apart here.

Legend:
CHI Log D procedure = format: physicochemical; conditions: for CHI Log D: pH 7.4; for chromatographic logD: pH 7.4, CHI Log D
Solubility in PBS = format: physicochemical
How it was run: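 The PBS solution was ultracentrifuged and the supernatant analyzed by HPLC. Its peak area was divided by that of a 50 μM peptide DMSO reference injection and multiplied by 50 uM to give solubility.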

[1] = molecular target: T1, full-length beta-Catenin (Uniprot ID P35222) (Homo sapiens, UniProt P35222); assay: Fluorescence polarization IC50 (beta-catenin / 5FAM-TCF4 10-53 competition); format: binding
T1 construct: 10 nM full-length beta-Catenin (Uniprot ID P35222)
T1 sequence (P35222 1-781): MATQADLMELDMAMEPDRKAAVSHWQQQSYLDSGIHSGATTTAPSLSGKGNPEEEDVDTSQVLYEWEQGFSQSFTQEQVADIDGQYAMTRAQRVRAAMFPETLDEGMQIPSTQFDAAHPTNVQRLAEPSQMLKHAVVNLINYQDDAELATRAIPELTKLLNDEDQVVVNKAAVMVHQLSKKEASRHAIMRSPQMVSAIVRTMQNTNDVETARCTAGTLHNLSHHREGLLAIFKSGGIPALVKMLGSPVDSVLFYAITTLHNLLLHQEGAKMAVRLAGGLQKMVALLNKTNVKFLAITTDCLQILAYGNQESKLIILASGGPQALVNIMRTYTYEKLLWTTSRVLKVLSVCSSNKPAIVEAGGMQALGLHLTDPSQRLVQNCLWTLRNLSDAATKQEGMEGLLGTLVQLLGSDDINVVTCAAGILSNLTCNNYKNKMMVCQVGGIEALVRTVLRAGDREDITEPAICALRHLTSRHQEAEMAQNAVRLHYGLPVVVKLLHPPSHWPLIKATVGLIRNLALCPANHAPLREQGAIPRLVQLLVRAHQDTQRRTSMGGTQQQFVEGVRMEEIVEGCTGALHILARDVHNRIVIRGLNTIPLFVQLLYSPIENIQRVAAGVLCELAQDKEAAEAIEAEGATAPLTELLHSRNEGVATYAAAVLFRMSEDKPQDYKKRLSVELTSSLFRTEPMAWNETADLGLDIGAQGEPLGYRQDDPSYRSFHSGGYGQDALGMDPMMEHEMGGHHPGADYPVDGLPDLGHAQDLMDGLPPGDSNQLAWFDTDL

[2] = system: TCF/LEF luciferase Reporter in DLD1 cells; assay: TCF reporter assay (DLD1 TCF/LEF luciferase reporter, Bright-Glo); format: cell-based; conditions: for DLD1 TCF c2 BrightGlo % Inhibition: replicates
How it was run: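 DLD1 cells stably carrying a TCF/LEF luciferase reporter were plated at 5000 cells/well in RPMI + 4% FBS and treated overnight with a 1:2 compound dilution series. Bright-Glo luminescence read on day 3; viability by CellTiter-Glo. Absolute IC50 determined.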

[3] = molecular target: T2, beta-catenin/TCF4 engagement (Homo sapiens, UniProt P35222); assay: Nano-BRET target engagement assay (B-cat-Halo & TCF4-Luc in HEK293 cells); format: cell-based; conditions: read-out: NanoBRET Abs IC50
T2 construct: expressed in transfected cells; host or cells: HEK293
T2 sequence (P35222 1-781): T1 sequence (P35222 1-781)

[4] = fluorescence polarization, beta-catenin, read-out: FP EC50
[5] = absolute IC50, read-out: DLD1 reporter assay Abs IC50
[6] = read-out: DLD1 4% Abs IC50, DLD1 4%

| SMILES | CHI Log D (CHI Log D procedure) | Solubility (Solubility in PBS) [µM] | IC50 [1, 4] [µM] | IC50 ([1]; read-out: beta-Catenin FP IC50) [µM] | IC50 [2, 5] [µM] | IC50 [2, 6] [µM] | IC50 ([3]; absolute IC50) [µM] | IC50 [3] [µM] | chromatographic logD (CHI Log D procedure) | IC50 ([1]; fluorescence polarization, read-out: beta-Catenin FP IC50) [µM] | IC50 ([2]; read-out: DLD1 4% Abs IC50, DLD1 reporter, 4%, absolute IC50) [µM] | DLD1 TCF c2 BrightGlo % Inhibition ([2]; first dose = 20 uM (plate map), 20 µM) | DLD1 TCF c2 BrightGlo % Inhibition ([2]; 0.625 µM) | DLD1 TCF c2 BrightGlo % Inhibition ([2]; 1.25 µM) | DLD1 TCF c2 BrightGlo % Inhibition ([2]; 2.5 µM) | DLD1 TCF c2 BrightGlo % Inhibition ([2]; 10 µM) | DLD1 TCF c2 BrightGlo % Inhibition ([2]; third dose = 5 uM (plate map), 5 µM) |
| --- | --- | --- | --- | --- | --- | --- | --- | --- | --- | --- | --- | --- | --- | --- | --- | --- | --- |
| CC(=O)N1CCC[C@]12CC=CCCCC1(CCCC=CCCCCCC[C@@](C)(C(=O)N[C@@H](Cc3ccccc3Cl)C(=O)N[C@@H](Cc3csc4ccccc34)C(=O)N[C@@H](CCO)C(N)=O)NC(=O)[C@H](CO)NC(=O)[C@H](Cc3ccccc3)NC(=O)[C@H](C)NC(=O)[C@H](C)NC(=O)[C@H](CN(CC(=O)O)CC(F)(F)F)NC(=O)[C@H](CC(=O)O)NC1=O)NC(=O)[C@H](CC(C)(C)C)NC(=O)[C@H](CC(=O)O)NC2=O (single isomer, unassigned) [I-999, Ac-PL3-Asp-Npg-B5-Asp-TfeGA-Ala-Ala-Phe-Ser-S8-2C1F-BztA-Hse-NH2] | 2.941 | 30 (≈ 58.8 µg/mL) | 0.026 | 0.026 | 11.1 | 5.6 | 26.3 | 26.3 | – | – | – | 63.2% and 71.4% and 68.9% | 7.7% and 8.8% and 6.4% | 1.7% and 8.0% and 4.0% | 14.3% and 11.9% and 4.4% | 42.0% and 49.2% and 49.7% | 18.2% and 32.5% and 23.9% |
| CCN(CC(=O)O)C[C@@H]1NC(=O)[C@H](CC(=O)O)NC(=O)C2(CCCC=CCCCOC(=O)N3CC[C@@](C(=O)N[C@@H](Cc4ccsc4)C(=O)N[C@@H](Cc4csc5ccccc45)C(=O)N[C@@H](CCC(N)=O)C(N)=O)(C3)NC(=O)[C@H](CC(C)C)NC(=O)[C@H](Cc3ccccc3)NC(=O)[C@H](C)NC(=O)[C@H](C)NC1=O)CCCC=CC[C@]1(CCCN1C(C)=O)C(=O)N[C@@H](CC(=O)O)C(=O)N[C@@H](CC(C)(C)C)C(=O)N2 (stereo partly drawn) [I-973, Ac-PL3-Asp-Npg-B5-Asp-EtGA-Ala-Ala-Phe-Leu-PyrS2-3Thi-BztA-Gln-NH2] | 1.95 | 10 (≈ 19.7 µg/mL) | 1.38 | 0.009 | – | 10.1 | – | – | – | – | – | – | – | – | – | – | – |

More lines, main results first:

| CHI Log D (CHI Log D procedure) | Solubility (Solubility in PBS) [µM] | IC50 [1, 4] [µM] | IC50 ([1]; read-out: beta-Catenin FP IC50) [µM] | IC50 [2, 5] [µM] | IC50 [2, 6] [µM] | IC50 ([3]; absolute IC50) [µM] | IC50 [3] [µM] | chromatographic logD (CHI Log D procedure) | IC50 ([1]; fluorescence polarization, read-out: beta-Catenin FP IC50) [µM] | IC50 ([2]; read-out: DLD1 4% Abs IC50, DLD1 reporter, 4%, absolute IC50) [µM] | SMILES | DLD1 TCF c2 BrightGlo % Inhibition ([2]; first dose = 20 uM (plate map), 20 µM) | DLD1 TCF c2 BrightGlo % Inhibition ([2]; 0.625 µM) | DLD1 TCF c2 BrightGlo % Inhibition ([2]; 1.25 µM) | DLD1 TCF c2 BrightGlo % Inhibition ([2]; 2.5 µM) | DLD1 TCF c2 BrightGlo % Inhibition ([2]; 10 µM) | DLD1 TCF c2 BrightGlo % Inhibition ([2]; third dose = 5 uM (plate map), 5 µM) |
| --- | --- | --- | --- | --- | --- | --- | --- | --- | --- | --- | --- | --- | --- | --- | --- | --- | --- |
| – | – | – | 0.009 | > 20 | – | 29.8 | – | 2.6 | – | – | CC(=O)N1CCC[C@]12CC=CCCCC1(CCCC=CCCCOC(=O)N3CC[C@@](C(=O)N[C@@H](Cc4ccccc4Cl)C(=O)N[C@@H](Cc4csc5ccccc45)C(=O)N[C@@H](CCC(N)=O)C(N)=O)(C3)NC(=O)[C@H](CC(N)=O)NC(=O)[C@H](Cc3ccccc3)NC(=O)[C@H](CC(C)C)NC(=O)[C@H](C)NC(=O)[C@H](CN(CC(=O)O)CC(F)(F)F)NC(=O)[C@H](CC(=O)O)NC1=O)NC(=O)[C@H](CC(C)(C)C)NC(=O)[C@H](CC(=O)O)NC2=O (stereo partly drawn) [I-1002, Ac-PL3-Asp-Npg-B5-Asp-TfeGA-Ala-Leu-Phe-Asn-PyrS2-2C1F-BztA-Gln-NH2] | – | – | – | – | – | – |
| – | – | – | 0.015 | > 20 | – | > 20 | – | 3.09 | – | – | CC(=O)N1CCC[C@]12CC=CCCCC1(CCCC=CCCCCCC[C@@](C)(C(=O)N[C@@H](Cc3ccccc3Cl)C(=O)N[C@@H](Cc3csc4ccccc34)C(=O)N[C@@H](CCC(N)=O)C(N)=O)NC(=O)[C@H](CC(C)C)NC(=O)[C@H](Cc3ccccc3)NC(=O)[C@H](C)NC(=O)[C@H](C)NC(=O)[C@H](CC(=O)O)NC(=O)[C@H](CC(=O)O)NC1=O)NC(=O)[C@H](CC(C)(C)C)NC(=O)[C@H](CC(=O)O)NC2=O (stereo partly drawn) [I-1095, Ac-PL3-Asp-Npg-B5-Asp-Asp-Ala-Ala-Phe-Leu-S8-2C1F-BztA-Gln-NH2] | – | – | – | – | – | – |
| – | 10 (≈ 20.1 µg/mL) | – | – | – | – | 4.2 | – | – | 0.01 | 2.1 | CC(=O)N1CCC[C@]12CC=CCCCC1(CCCC=CCCCOC(=O)N3CC[C@@](C(=O)N[C@@H](Cc4ccccc4C(F)(F)F)C(=O)N[C@@H](Cc4csc5ccccc45)C(=O)N[C@@H](CCC(N)=O)C(N)=O)(C3)NC(=O)[C@H](Cc3ccccc3)NC(=O)[C@H](Cc3ccccc3)NC(=O)[C@H](C)NC(=O)[C@H](C)NC(=O)[C@H](CC(=O)O)NC(=O)[C@H](CC(=O)O)NC1=O)NC(=O)[C@H](CC(C)(C)C)NC(=O)[C@H](CC(=O)O)NC2=O (stereo partly drawn) [I-1319, Ac-PL3-Asp-Npg-B5-Asp-Asp-Ala-Ala-Phe-Phe-PyrS2-2F3MeF-BztA-Gln-NH2] | – | – | – | – | – | – |
